Counter-ions that a name gives are not always drawn. Like-named read-outs stand apart in the source and are kept apart here.

Common to all, as to type: biochemical
The target of one assay is T1, recombinant PRL-1 (Homo sapiens, UniProt Q93096).
T1 construct: 6xHis (N, cleaved yes); made in house; host or cells: E. coli One Shot BL21 Star
T1 sequence (Q93096 1-173): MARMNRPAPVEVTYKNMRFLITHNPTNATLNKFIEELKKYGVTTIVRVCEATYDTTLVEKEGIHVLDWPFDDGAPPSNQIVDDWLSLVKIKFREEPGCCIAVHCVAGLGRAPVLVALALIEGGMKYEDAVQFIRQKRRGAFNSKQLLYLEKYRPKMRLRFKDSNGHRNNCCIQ
Nature of the assay: In vitro phosphatase assay (DiFMUP hydrolysis), PRL-1. Further: test concentration or dose not given here.

In a further assay the target is T2, recombinant PRL-2 (Homo sapiens, UniProt Q12974).
T2 construct: 6xHis (N, cleaved yes); made in house; host or cells: E. coli One Shot BL21 Star
T2 sequence (Q12974 1-167): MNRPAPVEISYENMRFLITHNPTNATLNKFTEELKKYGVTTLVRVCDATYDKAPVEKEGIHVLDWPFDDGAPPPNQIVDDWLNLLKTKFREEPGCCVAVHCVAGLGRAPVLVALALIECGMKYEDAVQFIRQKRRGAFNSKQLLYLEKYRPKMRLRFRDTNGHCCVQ
Nature of the assay: In vitro phosphatase assay (DiFMUP hydrolysis), PRL-2.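 Further: PRL-2 activity read as DiFMUP hydrolysis after 20 min at room temperature with drug, enzyme first pre-reduced at 4 °C for 20 min.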

Another assay concerns the target T3, recombinant PRL-3 (Homo sapiens, UniProt O75365).
T3 construct: 6xHis (N, cleaved yes); made in house; host or cells: E. coli One Shot BL21 Star
Put plainly: In vitro phosphatase assay (DiFMUP hydrolysis), PRL-3. Further: test concentration or dose not given here.

Where [1] appears, read: FDA-approved drug screen, compared to DMSO.

T3 sequence (O75365 whole entry): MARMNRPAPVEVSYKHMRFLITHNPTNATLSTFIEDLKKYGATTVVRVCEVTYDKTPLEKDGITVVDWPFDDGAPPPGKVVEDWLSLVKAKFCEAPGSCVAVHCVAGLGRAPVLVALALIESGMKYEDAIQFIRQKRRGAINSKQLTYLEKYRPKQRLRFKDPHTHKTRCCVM

Regarding `COc1ccccc1N1CCN(CC(O)COc2cccc3ccccc23)CC1` (stereo not drawn) [Naftopidil], the “% Phosphatase Activity (compared to DMSO) PRL-1” value on recombinant PRL-1 (setting [1]) is 109%. The “% Phosphatase Activity (compared to DMSO) PRL-2” value at recombinant PRL-2 (setting [1]) was determined as 111%. At recombinant PRL-3 (setting [1]), the “% Phosphatase Activity (compared to DMSO) PRL-3” value is recorded as 94%.
Regarding `CCn1cc(C(=O)O)c(=O)c2ccc(C)nc21` [Nalidixic acid], the “% Phosphatase Activity (compared to DMSO) PRL-1” value on recombinant PRL-1 (setting [1]) amounted to 112%. Moreover, on recombinant PRL-2 (setting [1]), the “% Phosphatase Activity (compared to DMSO) PRL-2” value stood at 122%. Also, the “% Phosphatase Activity (compared to DMSO) PRL-3” value on recombinant PRL-3 (setting [1]) was 100%.
Take `O=C1CC[C@@]2(O)[C@H]3Cc4ccc(O)c5c4[C@@]2(CCN3CC2CC2)[C@H]1O5` [Naltrexone HCl]: the “% Phosphatase Activity (compared to DMSO) PRL-1” value at recombinant PRL-1 (setting [1]) is 100%. Besides, the “% Phosphatase Activity (compared to DMSO) PRL-2” value at recombinant PRL-2 (setting [1]) was 120%. Further, the “% Phosphatase Activity (compared to DMSO) PRL-3” value on recombinant PRL-3 (setting [1]) came to 95%.
As for `CCCCCCCCCC(=O)O[C@H]1CC[C@H]2[C@@H]3CCC4=CC(=O)CC[C@@H]4[C@H]3CC[C@]12C` [Nandrolone decanoate], the “% Phosphatase Activity (compared to DMSO) PRL-1” value on recombinant PRL-1 (setting [1]) worked out at 93%. In addition, on recombinant PRL-2 (setting [1]), the “% Phosphatase Activity (compared to DMSO) PRL-2” value is reported as 94%. For the same compound, the “% Phosphatase Activity (compared to DMSO) PRL-3” value at recombinant PRL-3 (setting [1]) is 90%.
For `C[C@]12CC[C@H]3[C@@H](CCC4=CC(=O)CC[C@@H]43)[C@@H]1CC[C@@H]2O` [Nandrolone], on recombinant PRL-1, the “% Phosphatase Activity (compared to DMSO) PRL-1” value was found to be 93%. Moreover, the “% Phosphatase Activity (compared to DMSO) PRL-2” value on recombinant PRL-2 was 93%. Further, at recombinant PRL-3, the “% Phosphatase Activity (compared to DMSO) PRL-3” value amounted to 78%.
On to `c1ccc2c(CC3=NCCN3)cccc2c1` [Naphazoline HCl], for which the “% Phosphatase Activity (compared to DMSO) PRL-1” value at recombinant PRL-1 (setting [1]) is 100%. The “% Phosphatase Activity (compared to DMSO) PRL-2” value on recombinant PRL-2 (setting [1]) is recorded as 102%. Further, the “% Phosphatase Activity (compared to DMSO) PRL-3” value at recombinant PRL-3 (setting [1]) was determined as 83%.
Take `CNS(=O)(=O)CCc1ccc2[nH]cc(C3CCN(C)CC3)c2c1` [Naratriptan]: at recombinant PRL-1 (setting [1]), the “% Phosphatase Activity (compared to DMSO) PRL-1” value came to 103%. On recombinant PRL-2 (setting [1]), the “% Phosphatase Activity (compared to DMSO) PRL-2” value came out at 86%. Moreover, on recombinant PRL-3 (setting [1]), the “% Phosphatase Activity (compared to DMSO) PRL-3” value was 90%.
As to `C[C@@H]1C/C=C/C=C/C=C/C=C/[C@H](O[C@@H]2O[C@H](C)[C@@H](O)[C@H](N)[C@@H]2O)C[C@@H]2O[C@](O)(C[C@@H](O)C[C@H]3O[C@@H]3/C=C/C(=O)O1)C[C@H](O)[C@H]2C(=O)O` [Natamycin], the “% Phosphatase Activity (compared to DMSO) PRL-1” value on recombinant PRL-1 (setting [1]) turned out to be 96%. Also, the “% Phosphatase Activity (compared to DMSO) PRL-2” value at recombinant PRL-2 (setting [1]) was 82%. Further, the “% Phosphatase Activity (compared to DMSO) PRL-3” value at recombinant PRL-3 (setting [1]) came out at 78%.
With `CC(C)[C@H]1CC[C@H](C(=O)N[C@H](Cc2ccccc2)C(=O)O)CC1` [Nateglinide], on recombinant PRL-1 (setting [1]), the “% Phosphatase Activity (compared to DMSO) PRL-1” value worked out at 92%. The “% Phosphatase Activity (compared to DMSO) PRL-2” value on recombinant PRL-2 (setting [1]) came to 90%. The “% Phosphatase Activity (compared to DMSO) PRL-3” value on recombinant PRL-3 (setting [1]) is on record as 73%.
With `OC(CNCC(O)C1CCc2cc(F)ccc2O1)C1CCc2cc(F)ccc2O1` (stereo not drawn) [Nebivolol], the “% Phosphatase Activity (compared to DMSO) PRL-1” value on recombinant PRL-1 (setting [1]) came to 105%. At recombinant PRL-2 (setting [1]), the “% Phosphatase Activity (compared to DMSO) PRL-2” value is 81%. In addition, at recombinant PRL-3 (setting [1]), the “% Phosphatase Activity (compared to DMSO) PRL-3” value was 87%.
On the same counts, the results for `[NH2][Pt]1([NH2])[O]CC(=O)[O]1` [Nedaplatin] are 102%, 97% and 94%.
On the same counts, the results for `Cc1cccc(C)c1NC(=O)CN1CCCC1=O` [Nefiracetam] are 94%, 95% and 88%.
For `CN1CCOC(c2ccccc2)c2ccccc2C1` (stereo not drawn) [Nefopam HCl], the “% Phosphatase Activity (compared to DMSO) PRL-1” value on recombinant PRL-1 (setting [1]) is on record as 108%. For the same compound, the “% Phosphatase Activity (compared to DMSO) PRL-2” value on recombinant PRL-2 (setting [1]) was 87%. The “% Phosphatase Activity (compared to DMSO) PRL-3” value on recombinant PRL-3 (setting [1]) was 101%.
In the case of `COc1nc(N)nc2c1ncn2[C@@H]1O[C@H](CO)[C@@H](O)[C@@H]1O` [Nelarabine], the “% Phosphatase Activity (compared to DMSO) PRL-1” value on recombinant PRL-1 came out at 93%. Besides, the “% Phosphatase Activity (compared to DMSO) PRL-2” value at recombinant PRL-2 turned out to be 108%. In addition, the “% Phosphatase Activity (compared to DMSO) PRL-3” value at recombinant PRL-3 was determined as 79%.
`Cc1c(O)cccc1C(=O)N[C@@H](CSc1ccccc1)[C@H](O)CN1C[C@H]2CCCC[C@H]2C[C@H]1C(=O)NC(C)(C)C` [Nelfinavir Mesylate]: on recombinant PRL-1 (setting [1]), the “% Phosphatase Activity (compared to DMSO) PRL-1” value turned out to be 102%. The “% Phosphatase Activity (compared to DMSO) PRL-2” value on recombinant PRL-2 (setting [1]) came to 91%. At recombinant PRL-3 (setting [1]), the “% Phosphatase Activity (compared to DMSO) PRL-3” value came to 79%.
As to `NC[C@@H]1O[C@H](O[C@H]2[C@@H](O)[C@H](O[C@@H]3[C@@H](O)[C@H](N)C[C@H](N)[C@H]3O[C@H]3O[C@H](CN)[C@@H](O)[C@H](O)[C@H]3N)O[C@@H]2CO)[C@H](N)[C@@H](O)[C@@H]1O.O=S(=O)(O)O` [Neomycin sulfate], the “% Phosphatase Activity (compared to DMSO) PRL-1” value on recombinant PRL-1 (setting [1]) came out at 98%. Besides, the “% Phosphatase Activity (compared to DMSO) PRL-2” value on recombinant PRL-2 (setting [1]) was 103%. The “% Phosphatase Activity (compared to DMSO) PRL-3” value at recombinant PRL-3 (setting [1]) amounted to 86%.
With `NC(=O)Cc1cccc(C(=O)c2ccccc2)c1N` [Nepafenac], the “% Phosphatase Activity (compared to DMSO) PRL-1” value on recombinant PRL-1 (setting [1]) amounted to 96%. Further, the “% Phosphatase Activity (compared to DMSO) PRL-2” value at recombinant PRL-2 (setting [1]) amounted to 93%. Besides, the “% Phosphatase Activity (compared to DMSO) PRL-3” value at recombinant PRL-3 (setting [1]) was found to be 72%.
With `CCOc1cc2ncc(C#N)c(Nc3ccc(OCc4ccccn4)c(Cl)c3)c2cc1NC(=O)/C=C/CN(C)C` [Neratinib (HKI-272)], at recombinant PRL-1 (setting [1]), the “% Phosphatase Activity (compared to DMSO) PRL-1” value is reported as 110%. Also, the “% Phosphatase Activity (compared to DMSO) PRL-2” value at recombinant PRL-2 (setting [1]) was 111%. The “% Phosphatase Activity (compared to DMSO) PRL-3” value on recombinant PRL-3 (setting [1]) came to 91%.
`CCN[C@@H]1C[C@H](N)[C@@H](O[C@H]2OC(CN)=CC[C@H]2N)[C@H](O)[C@H]1O[C@H]1OC[C@](C)(O)[C@H](NC)[C@H]1O.CCN[C@@H]1C[C@H](N)[C@@H](O[C@H]2OC(CN)=CC[C@H]2N)[C@H](O)[C@H]1O[C@H]1OC[C@](C)(O)[C@H](NC)[C@H]1O.O=S(=O)(O)O.O=S(=O)(O)O.O=S(=O)(O)O.O=S(=O)(O)O.O=S(=O)(O)O` [Netilmicin Sulfate]: at recombinant PRL-1 (setting [1]), the “% Phosphatase Activity (compared to DMSO) PRL-1” value stood at 86%. Moreover, the “% Phosphatase Activity (compared to DMSO) PRL-2” value on recombinant PRL-2 (setting [1]) came out at 110%. For the same compound, the “% Phosphatase Activity (compared to DMSO) PRL-3” value on recombinant PRL-3 (setting [1]) is 111%.
On the same counts, the results for `Cc1ccnc2c1NC(=O)c1cccnc1N2C1CC1` [Nevirapine] are 85%, 101% and 111%.
As for `O=C(CCNNC(=O)c1ccncc1)NCc1ccccc1` [Nialamide], the “% Phosphatase Activity (compared to DMSO) PRL-1” value on recombinant PRL-1 (setting [1]) amounted to 95%. In addition, on recombinant PRL-2 (setting [1]), the “% Phosphatase Activity (compared to DMSO) PRL-2” value is recorded as 100%. Further, on recombinant PRL-3 (setting [1]), the “% Phosphatase Activity (compared to DMSO) PRL-3” value was 96%.
As to `COC(=O)C1=C(C)NC(C)=C(C(=O)OCCN(C)Cc2ccccc2)C1c1cccc([N+](=O)[O-])c1` (stereo not drawn) [Nicardipine HCl], the “% Phosphatase Activity (compared to DMSO) PRL-1” value at recombinant PRL-1 (setting [1]) was found to be 85%. In addition, the “% Phosphatase Activity (compared to DMSO) PRL-2” value on recombinant PRL-2 (setting [1]) is given as 80%. Besides, on recombinant PRL-3 (setting [1]), the “% Phosphatase Activity (compared to DMSO) PRL-3” value was 68%.
Consider `O=C(NCCO[N+](=O)[O-])c1cccnc1` [Nicorandil], for which the “% Phosphatase Activity (compared to DMSO) PRL-1” value at recombinant PRL-1 (setting [1]) is reported as 86%. Besides, the “% Phosphatase Activity (compared to DMSO) PRL-2” value at recombinant PRL-2 (setting [1]) is 103%. Further, the “% Phosphatase Activity (compared to DMSO) PRL-3” value on recombinant PRL-3 (setting [1]) came out at 91%.
For `NC(=O)c1cccnc1` [Nicotinamide (Vitamin B3)] the same measures were 88%, 95% and 98%.
For the compound `CN1CCC[C@H]1c1cccnc1.O=C(O)C(O)C(O)C(=O)O.O=C(O)C(O)C(O)C(=O)O` [Nicotine Ditartrate], the “% Phosphatase Activity (compared to DMSO) PRL-1” value on recombinant PRL-1 was 95%. For the same compound, the “% Phosphatase Activity (compared to DMSO) PRL-2” value on recombinant PRL-2 is reported as 96%. Also, at recombinant PRL-3, the “% Phosphatase Activity (compared to DMSO) PRL-3” value is recorded as 96%.
